Earlier results, collected in patent US20190249218A1, “Method, Medium and Kit for Detecting Multiple Aminoglycoside Resistance Including 16S rRNA Methylase Mediated Resistance in Gram-Negative Bacteria” (priority 2016, published 2019).

Experiments:
[1] = system: 16S rRNA methylase producers; conditions: reference (13); cited from earlier work
[2] = system: aminoglycoside modifying enzymes such as the nucleotidyl, acetyl and phosphoryl enzymes; conditions: reference (12); cited from earlier work

SMILES: CN[C@@H]1[C@@H](O)[C@@H](O[C@@H]2[C@@H](O)[C@H](O[C@H]3OC(CNCCO)=CC[C@H]3N)[C@@H](N)C[C@H]2NC(=O)[C@@H](O)CCN)OC[C@]1(C)O [Plazomicin]
- activity against 16S rRNA methylase producers [1]: inactive
- activity against aminoglycoside modifying enzymes [2]: active
